# Data reported in patent US20230391868A1, “COMPOSITIONS FOR AND METHODS OF TREATING CANCER” (The George Washington University, priority 2022, published 2023).
# Test system: primary mouse BMDMs
# Experiment: Pro-phagocytic signal gene expression in BMDMs
# Assay type: cell-based
# Protocol: Bone marrow-derived macrophages were isolated from the femurs and tibias of wild-type C57/Bl6, HDAC6 knockout (C57BL/6J-Hdac6em2Lutzy/J, 029318, Jackson Laboratory), or UBC-GFP (C57BL/6-Tg(UBC-GFP)30Scha/J, 004353, Jackson Laboratory). Isolated bone marrow cells were cultured in RPMI 1640 complete medium with 10% FBS, 1% NEAA, and 1% penicillin-streptomycin in 5% CO2 at 37° C. Medium was supplemented with murine recombinant M-CSF (20 ng/mL, 576404, Biolegend) to differentiate monocytes into macrophages. Three days after bone marrow isolation, undifferentiated and floating cells were washed with PBS and replaced with fresh RPMI media. A3.1A7 cells and BMDMs were pretreated with 5 μM of HDAC6 inhibitor NextA or vehicle prior to adding polarizing cytokines.
# qRT-PCR: Total RNA was extracted from cells using the Trizol reagent according to manufacturer's instructions (ThermoFisher Scientific, 15596018). Samples were then processed immediately or stored at −80° C. RNA was quantified using a NanoDrop One Spectrophotometer (ThermoFisher Scientific). The 260/280 ratios were routinely over 1.8. […] Target mRNA was quantified using MyIQ single-color real-time PCR detection system from Bio-Rad (Bio-Rad, Hercules, CA) and iQ SYBR green Supermix (Bio-Rad, 1708882). […] Quantification is expressed in arbitrary units and target mRNA levels were normalized to R-actin expression.
smiles,measurement,value
"CCCCN(Cc1ccc(C(=O)NO)cc1)C(=O)Nc1ccccc1 [NextA, Nexturastat A]","expression of Lrp1, Cd36, and Mfge8",significant increase
